Data from patent publication US20140228543A1, “MODIFIED AND DERIVATIZED ß-GLUCAN COMPOUNDS, COMPOSITIONS, AND METHODS” (Biothera, Inc., priority 2011, published 2014).

Assays:
Type in all cases: cell-based
[1] = tested on: human neutrophils; assay: Neutrophil migration (chemotaxis) to serum-treated glucan
Protocol: This ability was measured by comparing the migratory capacity of human neutrophils to parent medium molecular weight (MMW) yeast β-glucan versus one of its derivatives, BT-1222. […] In contrast, the migration of neutrophils to MMW β-glucan or BT-1222 was 3.1 fold and 2.8 fold over medium alone, respectively.
Heparinized peripheral blood was obtained from healthy volunteers, and neutrophils were isolated by density gradient centrifugation with Ficoll-Paque followed by 3% […] sedimentation. Residual erythrocytes were removed by hypotonic lysis. Neutrophils were resuspended at 200,000 cells/ml in RPMI with 3% autologous serum (AS). MMW (3.3 mg/mL), BT-1222 (3.3 mg/mL) and PBS control were mixed with AS in 1:1 ratio and placed in a 37° C. water bath for 30 minutes. After incubation, Imprime and benzylamine-Imprime were diluted in RPMI to achieve 100, 50, 25, and 10 μg/ml concentrations with final concentration of serum being 3%. PBS control was diluted in a similar manner. […] The plate was placed in 37° C. incubator for 1 hour, lysed with 10 μl Cell-titer glo and read for luminescence on the M5 plate reader. Fold over media migration (chemotaxis) was calculated by dividing the RLU (relative luminescence units) for the treatment groups over migration to media (chemokinesis).

[2] = tested on: human neutrophils; assay: iC3b deposition on neutrophils (flow cytometry); conditions: for Approximate Fold Increase/Decrease in MFI over Parent Compound (iC3b) / MFI(ic3b) compound/MFI(ic3b) PBS: 200 μg/mL hexose concentration, 2 hr, 37° C., 10% serum
Protocol: This ability was evaluated by comparing the levels of iC3b complement fragment detected on human neutrophils with the derivative versus parent β-glucan-bound.
Enriched neutrophils were resuspended at 1×10^6 cells/mL in RPMI 1640 supplemented with 10% serum. The parent or the derivatized glucans at 200, μg/mL hexose concentration were added to neutrophils and incubated in a 37° C., 5% C02 humidified incubator for 2 hr. After incubation, cells were washed twice with FACS buffer (HBSS supplemented with 1% FBS and 0.1% sodium azide) to remove any unbound β-glucan, stained with a neo-epitope specific anti-iC3b Ab and PE-conjugated goat anti-mouse IgG and subsequently analyzed by flow cytometry.
Table 1 below lists the fold change of mean fluorescence intensity (MFI) values of iC3b staining on neutrophils treated with each of the parent or derivatized glucans over that of PBS control-treated cells.

[3] = tested on: human neutrophils; assay: β-glucan binding on neutrophils (BfD IV staining, flow cytometry); conditions: for Approximate Fold Increase/Decrease in MFI over Parent Compound (BfD IV) / MFI(BID IV) compound/MFI(BID IV) PBS: 200 μg/mL hexose concentration, 2 hr, 37° C., 10% serum
Protocol: This ability was evaluated by comparing the levels of neutrophil-bound parent versus the derivatives of β-glucans detected by BfD IV, a monoclonal antibody (MAb) specific for β-1,3/1,6 glucans. […] Table 2 lists the fold change of MFI values of BfD IV staining on neutrophils treated with each of the parent and derivatized glucans over that of PBS control-treated cells.
Enriched neutrophils were resuspended at 1×10^6 cells/mL in RPMI 1640 supplemented with 10% serum. The parent or the derivatized glucans at 200, μg/mL hexose concentration were added to neutrophils and incubated in a 37° C., 5% CO2 humidified incubator for 2 hr. After incubation, cells were washed twice with FACS buffer (HBSS supplemented with 1% FBS and 0.1% sodium azide) to remove any unbound β-glucan, and subsequently treated with Fc block. Post Fc block step, cells were stained with the BfD IV Ab for 30 min at 4° C. and washed twice with cold FACS buffer. Cells were then incubated with FITC-conjugated F(ab′)2 goat anti-mouse IgM for 30 min at 4° C. and washed once with cold FACS buffer before fixing with 1% paraformaldehyde. Events were collected on a LSRII flow cytometer and analysis was performed using FlowJo software.
Table 2 summarizes the fold change of MFI values of BfD IV staining on neutrophils treated with each of the parent, or derivatized β-glucans, over that of PBS control-treated cells.

[4] = tested on: human peripheral blood mononuclear cells; assay: Oxidative burst (superoxide production by cytochrome c reduction) on immobilized glucan; conditions: human PBMCs
Protocol: Dilutions of MMW and BT-1222 were prepared out-of-plate in water. Subsequently, 50 μL of each dilution were added to triplicate wells of Costar® Universal-Bind™ microtiter plates. For immobilizing the glucans on the plate, the plate was irradiated for 5 min in a UV cross-linker, and then incubated at 50° C. until completely dried. After checking for complete dryness of the plate, it was cross-linked again under UV for 5 minutes. The microtiter plates were then blocked with 0.25% bovine serum albumin (BSA) in DPBS for 30 min at room temperature. Each microtiter plate included positive control wells and negative control wells to which only water with no polysaccharide was added at this point.
The oxidative burst response was then determined by standard methods by measuring SO production through the reduction of cytochrome c. Peripheral blood mononuclear cells (PBMCs) were resuspended in HBSS/HEPES buffer with 0.25% BSA at a concentration of 4×10^6 cells/mL and maintained at 37° C. until added to the plate. A 100 μL aliquot of 200 μM bovine cytochrome c solution in HBSS/HEPES buffer previously incubated at 37° C. was added to each well. Approximately 4.0×10^5 cells, in a 100 μL volume, were subsequently added to each well of the microtiter plate. The negative assay control consisting of cells and cytochrome c was added in the uncoated negative control wells. As a positive assay control, just before reading the plate, phorbol myristate acetate (PMA) at 100 ng/mL was added as the stimulus to the cells in the uncoated positive control wells to achieve a final concentration of 50 ng/mL. The plate was maintained at 37° C., and optical density (OD) in each well was read at 550 nm every 15 min for 120 min using a spectrophotometer. For each concentration of polysaccharide, the OD change (ΔOD) was calculated from the time of minimum response (1 min) to the time of maximum response (120 mins). The rate of SO production (nmoles of SO/10^6 cells/120 mins) was calculated from the ΔOD value and the extinction coefficient of cytochrome c (21.1×103 M-1 cm-1). […]

Row | Substance | migration of neutrophils compared with parent MMW ([1]; FIG. 2) | migration of neutrophils, fold over medium alone ([1]; glucan pre-incubated with autologous serum, 1 hour at 37° C.) [fold] | Approximate Fold Increase/Decrease in MFI over Parent Compound (iC3b) [2] [fold] | MFI(ic3b) compound/MFI(ic3b) PBS [2] | staining of iC3b on glucan-bound neutrophils compared with MMW-bound neutrophils ([2]; FIG. 3 histogram) | Approximate Fold Increase/Decrease in MFI over Parent Compound (BfD IV) [3] [fold] | MFI(BID IV) compound/MFI(BID IV) PBS [3] | staining of BfD IV on glucan-bound neutrophils compared with MMW-bound neutrophils ([3]; histogram) | rate of superoxide production in comparison to MMW ([4]; at each concentration tested) | oxidative burst as measured by rate of superoxide production ([4]; plate-immobilized glucan, 120 min) | oxidative burst compared with parent scleroglucan and parent MMW yeast β-glucan ([4]; FIG. 5)
1 | Benzyl Amine MMW Yeast Glucan Analog [BT-1222] | comparable | 2.8 | 3.0 | 5.9 ± 2.2 | higher | 3.1 | 13.2 ± 3.6 | higher | higher | dose dependent oxidative burst | 
2 | Tyrosine MMW Yeast Glucan Analog [BT-1297] |  |  | 1.2 | 2.3 |  | 0.5 | 2.2 |  |  |  | 
3 | Benzyl Amine LMW Yeast Glucan Analog [BT-1273] |  |  | 2.2 | 2.4 |  | 11.3 | 17.0 |  |  |  | 
4 | Benzyl Amine Reducing End MMW Yeast Glucan Analog [BT-1275] |  |  | 0.9 | 1.7 ± 0.1 |  | 0.6 | 2.4 ± 1.2 |  |  |  | 
5 | Galactose Propyl Amine Dextran Analog [BT-1286] |  |  | 0.9 | 1.0 |  | 1.0 | 1.0 |  |  |  | 
6 | Propyl Amine Dextran Analog [BT-1266] |  |  | 0.9 | 1.0 |  | 1.1 | 1.1 |  |  |  | 
7 | Lactose Propyl Amine MMW Yeast Glucan Analog [BT-1244] |  |  | 1.5 | 3.0 ± 0.1 |  | 1.0 | 4.0 ± 1.9 |  |  |  | 
8 | De-Branched Scleroglucan Analog [BT-1322] |  |  |  |  |  |  |  |  |  |  | higher oxidative burst
9 | S-(+)-2-Phenyl Glycinol MMW Yeast Glucan Analog [BT-1300] |  |  | 0.8 | 1.6 |  | 0.6 | 2.5 |  |  |  | 
10 | Mannose Propyl Amine Laminarin Analog [BT-1281] |  |  | 0.8 | 1.1 |  | 1.1 | 1.2 |  |  |  | 
